The source of these data is article PMC4435638, “Phase I trial of volasertib, a Polo-like kinase inhibitor, plus platinum agents in solid tumors: safety, pharmacokinetics and activity” (Investigational New Drugs, 2015).

Read-outs that look alike come from different tables or passages of the source.

Series [1] deals with in vitro and murine xenograft models. The conditions noted are these: BI 2536 combined with cisplatin, cited from earlier work.
A short description of series [2]: Plasma pharmacokinetics of volasertib and CD 10899 (HPLC-MS/MS). The class given is in vivo, human. The following applies: for clearance / Vd / half-life: human, intravenous; for clearance / Vd / half-life / AUC0-∞,norm, gMean / Cmax,norm, gMean: plasma; for clearance / Vd / half-life / AUC0-∞,norm, gMean: n = 28; for clearance: read-out: CL (total clearance), gMean; for Vd: read-out: Vss (apparent volume of distribution at steady state), gMean; for half-life: read-out: t1/2 (terminal half-life), gMean (converted). The method, then:
Blood was collected at specified time points during the first and second cycles of each treatment schedule for pharmacokinetic analyses to determine the plasma concentration of volasertib and/or total platinum. Plasma concentrations in cycle 1 were determined before the start of platinum infusions (–1 hour 35 minutes relative to the start of the volasertib infusion), shortly before the end of platinum infusion (–30 minutes), during volasertib infusion (1 hour), immediately before the end of volasertib infusion (2 hours), and at 3, 8, 24, 48, 168, and 336 hours after the start of volasertib infusion. The plasma concentrations in cycle 2 were determined before the start of platinum infusions (–1 hour 35 minutes), shortly before end of platinum infusion (–30 minutes), and immediately before the end of volasertib infusion (2 hours). Plasma concentrations of both volasertib and CD 10899, the predominant circulating hydroxylated metabolite of volasertib previously identified in early clinical studies of volasertib metabolism in cancer patients, were determined simultaneously by validated high performance liquid chromatography-tandem mass spectrometry (HPLC-MS/MS) assay using [D3]volasertib and [D3]CD 10899 as internal standards. The samples were subjected to solid-phase extraction in a 96-well plate format. Chromatography was achieved on an analytical reversed-phase HPLC column with gradient elution. The substances were detected and quantified by HPLC-MS/MS using electrospray ionization in the positive ion mode. Assay performance during the study was assessed by back-calculation of calibration standards, tabulation of the standard curve fit function parameters and measurement of quality control samples. […] Samples were diluted and acidified prior to analysis and were introduced into the ICP-MS system without further sample preparation. The ions were separated and detected in the mass spectrometer and the peak areas of platinum and lutetium were determined.

The test system of series [3] is unrelated kinases (>50 other kinases). Further details: method as in PMID 19383823. The conditions noted are these: at concentrations up to 10 μM; cited from earlier work.
For a further series, the system named is Plk. Set-up: method as in PMID 19383823. The following applies: cited from earlier work.
In series [4] the test system is patients with progressive advanced or metastatic solid tumors. Further details: method as in PMID 22119200. The conditions noted are these: cited from earlier work.
On the set-up of series [5]: method as in PMID 19383823. The conditions noted are these: preclinical studies, compared with BI 2536; cited from earlier work.
[6] abbreviates: volasertib combined with carboplatin.
Setting [7] is: volasertib combined with cisplatin.

As for `CC[C@@H]1C(=O)N(C)c2cnc(Nc3ccc(C(=O)NC4CCN(C)CC4)cc3OC)nc2N1C1CCCC1` [BI 2536], the “Efficacy compared with cisplatin alone” value in series [1] (in vitro and murine xenograft models) is on record as “improved efficacy”. Also, the “Combination effect versus either therapy alone” value in series [1] (preclinical data) is “may confer synergism”.

With `CC[C@@H]1C(=O)N(C)c2cnc(Nc3ccc(C(=O)N[C@H]4CC[C@H](N5CCN(CC6CC6)CC5)CC4)cc3OC)nc2N1C(C)C` [Volasertib], the “Influence of cisplatin or carboplatin on the pharmacokinetics or metabolism of volasertib” value in series [2] (co-administration) is listed as “no influence”. In addition, in series [2] (setting [6]), the clearance was determined as 865 mL/min, the Vd amounted to 7550 L and the half-life is 166 h. In series [2] (setting [7]), the clearance worked out at 999 mL/min, the Vd turned out to be 6780 L and the half-life was 137 h. In series [2] (volasertib i.v. infusion combined with carboplatin), the “AUC0-∞,norm, gMean” value is 19.3 [ng · h/mL]/mg. In addition, in series [2] (volasertib i.v. infusion combined with carboplatin, n = 29), the “Cmax,norm, gMean” value was 1.40 [ng/mL]/mg. In addition, in series [2] (volasertib i.v. infusion combined with cisplatin), the “AUC0-∞,norm, gMean” value is 16.7 [ng · h/mL]/mg. Further, the “Cmax,norm, gMean” value in series [2] (volasertib i.v. infusion combined with cisplatin, n = 30) is 1.29 [ng/mL]/mg. Besides, the “Inhibition of unrelated kinases (>50 other kinases)” value in series [3] is given as “does not inhibit”. In addition, the “Concentrations at which Plk is targeted (mitotic arrest and apoptosis)” value in the series with Plk is “low nanomolar concentrations”. Also, the “MTD of single-agent volasertib” value in series [4] (phase I study, monotherapy) is 400 mg. Moreover, in series [4] (single agent, based on overall tolerability), the “Recommended dose for further clinical investigation” value was 300 mg. Also, the “Patients with confirmed partial response (PR)” value in series [4] (single agent, urothelial cancer, ovarian cancer, or melanoma) was “three patients”. Also, in series [5], the “Terminal half-life (t1/2)” value is given as “long terminal half-life” and the Volume of distribution result is reported as “high volume of distribution”.
